# pIC50: −log10 of the molar value.
# Experiments:
# BRD4(1) = target: T1, BRD4(1) (Homo sapiens, UniProt O60885); assay: TR-FRET binding assay: displacement of tetra-acetylated histone H4 peptide; details: for loss of efficacy/affinity with respect to 1: TR-FRET; for pIC50: displacement of tetra-acetylated H4 peptide from BRD4(1), duplicate, best fit; for TR-FRET IC50 (fold change): fold change of IC50 relative to compound 1
# T1 construct: encodes residues 44-168; His6 (TEV-cleavable); made in house; host or cells: Escherichia coli BL21 (DE3)
# Excerpt: Supplementary Information
# Figure S3: Normalized TR-FRET assay showing dose-dependently displacement of a tetra-acetylated H4 peptide from Brd4(BD1) in the presence of compounds 2-5. IC50 values corresponding to best fit are reported inside each graph. […]
# simultaneously. Each dot represents the average of two independent replicas, and the error bars correspond to their standard deviation.
# The BRD4(1) construct was a kind donation of Dr. Alessio Ciulli (University of Dundee, UK) and it encodes residues 44-168. The cloned his-tagged BRD4(1) was expressed in Escherichia coli BL21 (DE3).
# For biophysical assays, the protein puriﬁcation procedure consisted of immobilised metal ion aﬃnity chromatography (IMAC), followed by TEV cleavage of the histidine tag and a second IMAC chromatography. For crystallisation assays, the puriﬁcation protocol involved IMAC chromatography, followed by TEV cleavage and size-exclusion chromatography for crystallography. The expression and puriﬁcation has already been described.[25]
# The Time-Resolved Fluorescence Resonance Energy Transfer (TR-FRET) binding assay used to measure the disruption of the interaction of BRD4(1) with [Lys(Ac)5/8/12/16]-Histone H4 (1-21)-GGK(Biotin) (Eurogentec) with compounds 1-5, was performed according to a previously described protocol.[26] The experiments were performed in 384-well black plates (NUNC) in a buﬀer composed of 50 mM HEPES, pH 7.4, 50 mM NaCl, 400 mM KF (Sigma), 0.5 mM CHAPS (Sigma), and 0.05% BSA (Sigma) in a ﬁnal volume of 100 μL. BRD4(1) (100 nM) protein domain was mixed with 200 nM of the biotin-labelled histone peptides and incubated for 30 min at room temperature. Molecules were prepared in 250 mM HEPES, pH 7.4, 250 mM NaCl, and 20% DMSO at a single concentration to give a ﬁnal concentration of 50 μM 1% DMSO in a total well volume of 100 μL and incubated for 1 h. Molecules showing inhibition were then screened in duplicate at several serial dilutions. Inhibition (%) at 50 μM was calculated with […]
# where the negative control was run without BRD4(1) and inhibitor and positive control, without inhibitor to give the bottom signal and top signal, respectively. The protein−peptide complexes at equilibrium were then detected with 2 nM Eu3+ cryptate-conjugated streptavidin (CisBio) and 10 nM anti-his6-XL665 (CisBio). Titration of a known inhibitor ((+)-JQ1) was used as the control for each experiment. IC50 values were calculated by plotting the log [competitor/inhibitor] versus the mean normalised response data from a single experiment measured in duplicate and ﬁtting it to a four-parameter equation with variable Hill slope, using the GraphPad Prism software: […]
# The plates were measured in a CLARIOStar reader (BMG Labtech) using the homogeneous time-resolved ﬂuorescence module (excitation, 337 nm with 200 ﬂashes; emission, 620 and 665 nm). The 665 nm/620 nm ratios were converted to % normalised TR-FRET ratio = top ratio signal as 100% and […]
# bottom ratio signal as 0% to normalise experiments performed at diﬀerent days. Dose−response […]
# 2. Data Collection and Structure Solution.
# X-ray diffraction data were collected on beamlines I03 and I04-1 at the Diamond Light Source. Data were integrated with XDS[27] and scaled with AIMLESS[28] as part of the XIA2 and autoPROC auto-processing pipelines.[29,30] Initial refinement and map calculation was carried out with DIMPLE[31] using a ligand-free version of BRD4(1) (PDB 3MXF[25]) as starting model. Ligand restraints were generated with ACEDRG[32] and GRADE.[33] Refinement and model building was performed with REFMAC[34] and COOT,[35] respectively. Structure validation was performed with MolProbity.[36] Final models and structure factors have been deposited with PDB accession codes 9QOB and 9QNV. Data […]
# 1) Protein and Ligand Preparation
# Ligand 1 was co-crystallized in the previous study[9] with PDB code 6ZF9. The ligand pose was extracted from the PDB and missing hydrogens were added with MOE.[37] […]
# PDE4D [1] = assay: PDE4D inhibition (literature IC50); assay type: biochemical; details: gain from the phenyl ring of 3DE (82 µM to 270 nM)
# PDE4D [2] = test system: PDE4D; parameters: method as in PMID 15685167; details: with the phenyl ring; the analogue without it has 82 µM; read-out: affinity for PDE4D (IC50); cited from earlier work
loss of efficacy/affinity with respect to 1 (BRD4(1)) [fold],pIC50 (BRD4(1)),TR-FRET IC50 (fold change) (BRD4(1)) [x],SMILES,ΔΔG bind (PDE4D [1]) [kcal/mol],pIC50 (PDE4D [2])
2,4.27,2,Cc1nnc2scc(-c3ccccc3)n12 [Compound 2],,
,,,CCOC(=O)c1c(C)nn(-c2ccccc2)c1C [Compound 3DE],3.4,6.57
3,4.07,3.3,COCc1nnc2scc(-c3ccccc3)n12 [Compound 3],,
2.5,4.19,2.5,OCc1nnc2scc(-c3ccccc3)n12 [Compound 4],,

# Reference: publication PMC12790326, “Water Networks as Hydrophobic Recognition Motifs in Proteins” (Angewandte Chemie (International Ed. in English), 2025)
